Reference: article PMC4335062, “Data-Driven Prediction and Design of bZIP Coiled-Coil Interactions” (PLoS Computational Biology, 2015)
pKd: −log10 of the molar value. Read-outs that look alike come from different tables or passages of the source. Where no end group is shown, it is not given here.

Columns and labels:
Experiment in all cases: Direct-binding FRET assay
ATF3 = molecular target: T1, ATF3 (Homo sapiens, UniProt P18847); conditions: read-out: Kd
T1 construct: made in house
T1 sequence (P18847 86-149 limits assumed): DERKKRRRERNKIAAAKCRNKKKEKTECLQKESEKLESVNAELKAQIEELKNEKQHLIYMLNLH
Experimental: (§1) The direct binding assay was performed manually in 384-well plates and is similar to a previously described assay. Wells were filled with 20 μL of 1 mM TCEP-HCl. A 4 μM stock of acceptor protein was made fresh in 1 mM TCEP-HCl, and 20 μL was titrated in 2-fold dilutions over the wells. […] The direct-binding FRET data were fit as previously described. Briefly, the Kd of the designed peptide homodimer was experimentally determined and used with previously determined target homodimer Kd values to determine the heterodimer Kd. The homodimer Kd values used for the human bZIPs were from; experiments done by […] et al. used the same protein constructs for the human bZIP proteins, the same buffer conditions, and the same assay. The fitting used a system of ordinary differential equations to describe the concentrations of homo and heterodimers formed by the donor (D) and acceptor (A) as a function of the heterodimer Kd. MATLAB was used to simulate the binding experiment for different Kd values, and the value that gave the best agreement between simulation and experiment was assigned. A minimum 15% change in the donor fluorescence upon titrating the acceptor peptide from 0 to 1000 nM was required for a fit to be attempted. If this minimum was not met, the interaction was classified as “NS” for no signal change. […] For such curves, we removed the first five points and re-fit the data.

MAFF = molecular target: T2, MAFF (Homo sapiens, UniProt Q9ULX9); conditions: read-out: Kd
T2 construct: made in house
T2 sequence (Q9ULX9 51-114 limits assumed): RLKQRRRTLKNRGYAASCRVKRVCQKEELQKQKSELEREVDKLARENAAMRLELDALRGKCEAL
Experimental: as §1

XBP1 = molecular target: T3, XBP1 (Homo sapiens, UniProt P17861); conditions: read-out: Kd
T3 construct: made in house
T3 sequence (P17861 70-133 limits assumed): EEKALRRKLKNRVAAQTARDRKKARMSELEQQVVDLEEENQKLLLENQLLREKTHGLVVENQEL
Experimental: as §1

NFE2L1 = NFE2L1 (Homo sapiens, UniProt Q14494); set-up: made in house; conditions: read-out: Kd
Experimental: (§2) The direct binding assay was performed manually in 384-well plates and is similar to a previously described assay. Wells were filled with 20 μL of 1 mM TCEP-HCl. A 4 μM stock of acceptor protein was made fresh in 1 mM TCEP-HCl, and 20 μL was titrated in 2-fold dilutions over the wells. […] The direct-binding FRET data were fit as previously described. Briefly, the Kd of the designed peptide homodimer was experimentally determined and used with previously determined target homodimer Kd values to determine the heterodimer Kd. The homodimer Kd values used for the human bZIPs were from; experiments done by […] et al. used the same protein constructs for the human bZIP proteins, the same buffer conditions, and the same assay. The fitting used a system of ordinary differential equations to describe the concentrations of homo and heterodimers formed by the donor (D) and acceptor (A) as a function of the heterodimer Kd. MATLAB was used to simulate the binding experiment for different Kd values, and the value that gave the best agreement between simulation and experiment was assigned. A minimum 15% change in the donor fluorescence upon titrating the acceptor peptide from 0 to 1000 nM was required for a fit to be attempted. If this minimum was not met, the interaction was classified as “NS” for no signal change. […] These interactions were marked “AS” to indicate anomalous signal. We attributed this to interactions between the peptides, the dyes and the walls of the assay plates at low concentrations. These curves could not be fit, given their unusual shapes at low concentrations of acceptor. For such curves, we removed the first five points and re-fit the data. […] One example of this is increasing concentrations of acceptor causing an increase in donor fluorescence.

BACH1 = BACH1 (Homo sapiens, UniProt O14867); set-up: made in house; conditions: read-out: Kd
Experimental: as §2

MAFB = MAFB (Homo sapiens, UniProt Q9Y5Q3); set-up: made in house; conditions: mean or single, read-out: Kd
Experimental: as §2

BACH2 = BACH2 (Homo sapiens, UniProt Q9BYV9); set-up: made in house; conditions: read-out: Kd
Experimental: as §2

MAF = MAF (Homo sapiens, UniProt O75444); set-up: made in house; conditions: mean or single, read-out: Kd
Experimental: as §2

ATF6 = ATF6 (Homo sapiens, UniProt P18850); set-up: made in house; conditions: read-out: Kd
Experimental: as §2

[1] = 4°C, C-terminal rhodamine design, repeat 1
[2] = 4°C, N-terminal rhodamine design, mean or single
[3] = 23°C, C-terminal fluorescein design as donor, TAMRA target titrated
[4] = 23°C, C-terminal rhodamine design, repeat 1
[5] = 23°C, N-terminal rhodamine design, mean or single
[6] = 37°C, C-terminal fluorescein design as donor, TAMRA target titrated
[7] = 37°C, C-terminal rhodamine design, repeat 1
[8] = 37°C, N-terminal rhodamine design, mean or single
[9] = 4°C, C-terminal rhodamine design, mean or single
[10] = 23°C, C-terminal rhodamine design, mean or single
[11] = 23°C, N-terminal rhodamine design, repeat 1
[12] = 23°C, N-terminal rhodamine design, repeat 2
[13] = 37°C, C-terminal rhodamine design, mean or single
[14] = 37°C, N-terminal rhodamine design, repeat 1
[15] = 37°C, N-terminal rhodamine design, repeat 2
[16] = 4°C, C-terminal fluorescein design as donor, TAMRA target titrated
[17] = 4°C, C-terminal rhodamine design
[18] = 4°C, N-terminal rhodamine design
[19] = 23°C, C-terminal rhodamine design
[20] = 23°C, N-terminal rhodamine design
[21] = 37°C, C-terminal rhodamine design
[22] = 37°C, N-terminal rhodamine design

Chain of BACH1 (O14867 557-620 limits assumed): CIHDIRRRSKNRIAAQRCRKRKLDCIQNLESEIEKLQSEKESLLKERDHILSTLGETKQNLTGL
Chain of ATF6 (P18850 306-369 limits assumed): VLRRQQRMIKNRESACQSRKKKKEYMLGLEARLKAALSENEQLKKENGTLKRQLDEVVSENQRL
Chain of NFE2L1 (Q14494 654-717 limits assumed): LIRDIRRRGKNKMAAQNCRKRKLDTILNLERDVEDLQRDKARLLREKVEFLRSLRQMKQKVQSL
Chain of BACH2 (Q9BYV9 646-709 limits assumed): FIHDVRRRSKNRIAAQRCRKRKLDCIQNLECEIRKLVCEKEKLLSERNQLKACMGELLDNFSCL

## NQIKTLRTRLSKLRKDNLQLEKDIANLERKAKDLRAEKEQLEYEL [ATF4-d1]
ATF3; [1]
  pKd: < 6.00
ATF3; [2]
  pKd: < 6.00
ATF3; [3]
  pKd: < 6.00
ATF3; [4]
  pKd: < 6.00
ATF3; [5]
  pKd: < 6.00
ATF3; [6]
  pKd: < 6.00
ATF3; [7]
  pKd: < 6.00
ATF3; [8]
  pKd: < 6.00
MAFF; [9]
  pKd: < 5.30
MAFF; [2]
  pKd: > 6.70
MAFF; [4]
  pKd: < 5.30
MAFF; 23°C, C-terminal rhodamine design, repeat 2
  pKd: > 6.70
MAFF; [5]
  pKd: < 6.00
MAFF; [7]
  pKd: > 6.70
MAFF; 37°C, C-terminal rhodamine design, repeat 2
  pKd: > 6.70
MAFF; [8]
  pKd: < 6.00
XBP1; [1]
  pKd: < 6.00
XBP1; [2]
  pKd: < 6.00
XBP1; [4]
  pKd: < 6.00
XBP1; [5]
  pKd: < 6.00
XBP1; [7]
  pKd: < 6.00
XBP1; [8]
  pKd: < 6.00
NFE2L1; [9]
  pKd: < 5.30
NFE2L1; 4°C, N-terminal rhodamine design, repeat 1
  pKd: < 6.00
NFE2L1; 4°C, N-terminal rhodamine design, repeat 2
  pKd: < 6.00
NFE2L1; [10]
  pKd: < 5.30
NFE2L1; [5]
  pKd: < 6.00
NFE2L1; [11]
  pKd: < 6.00
NFE2L1; [12]
  pKd: < 6.00
NFE2L1; [13]
  pKd: < 6.00
NFE2L1; [8]
  pKd: < 6.00
NFE2L1; [14]
  pKd: < 6.00
NFE2L1; [15]
  pKd: < 6.00
BACH1; [16]
  pKd: < 6.00
BACH1; [9]
  pKd: < 5.30
BACH1; [3]
  pKd: < 6.00
BACH1; [10]
  pKd: < 6.00
BACH1; [11]
  pKd: < 6.00
BACH1; [12]
  pKd: < 5.30
BACH1; [6]
  pKd: < 6.00
BACH1; [13]
  pKd: < 6.00
BACH1; [8]
  pKd: < 6.00
BACH1; [14]
  pKd: < 6.00
BACH1; [15]
  pKd: < 6.00
MAFB; [17]
  pKd: < 5.30
MAFB; [18]
  pKd: < 6.00
MAFB; [19]
  pKd: < 5.30
MAFB; [20]
  pKd: < 6.00
MAFB; [21]
  pKd: 6.40
MAFB; [22]
  pKd: < 6.00
BACH2; [16]
  pKd: < 6.00
BACH2; [9]
  pKd: < 5.30
BACH2; [2]
  pKd: < 6.00
BACH2; [3]
  pKd: < 5.30
BACH2; [10]
  pKd: < 6.00
BACH2; [5]
  pKd: < 5.30
BACH2; [6]
  pKd: < 6.00
BACH2; [13]
  pKd: < 5.30
BACH2; [8]
  pKd: < 6.00
MAF; [17]
  pKd: < 5.30
MAF; [18]
  pKd: < 6.00
MAF; [19]
  pKd: < 5.30
MAF; [20]
  pKd: < 6.00
MAF; [21]
  pKd: 6.34
MAF; [22]
  pKd: < 6.00
ATF6; [16]
  pKd: < 6.00
ATF6; [9]
  pKd: < 6.00
ATF6; [2]
  pKd: < 6.00
ATF6; [3]
  pKd: < 6.00
ATF6; [10]
  pKd: < 6.00
ATF6; [5]
  pKd: < 6.00
ATF6; [6]
  pKd: < 6.00
ATF6; [13]
  pKd: < 6.00
ATF6; [8]
  pKd: < 6.00
